Laboratory results as given in PMC7243119, “Improved Surface Display of Human Hyal1 and Identification of Testosterone Propionate and Chicoric Acid as New Inhibitors” (Pharmaceuticals, 2020).

Experiments:
Hyal1 [1] = molecular target: T1, Hyal1 (Homo sapiens, UniProt Q12794); assay: Stains-all HA degradation assay with surface-displayed Hyal1 on E. coli cells, pH […]; type: cell-based
T1 sequence (Q12794 22-435): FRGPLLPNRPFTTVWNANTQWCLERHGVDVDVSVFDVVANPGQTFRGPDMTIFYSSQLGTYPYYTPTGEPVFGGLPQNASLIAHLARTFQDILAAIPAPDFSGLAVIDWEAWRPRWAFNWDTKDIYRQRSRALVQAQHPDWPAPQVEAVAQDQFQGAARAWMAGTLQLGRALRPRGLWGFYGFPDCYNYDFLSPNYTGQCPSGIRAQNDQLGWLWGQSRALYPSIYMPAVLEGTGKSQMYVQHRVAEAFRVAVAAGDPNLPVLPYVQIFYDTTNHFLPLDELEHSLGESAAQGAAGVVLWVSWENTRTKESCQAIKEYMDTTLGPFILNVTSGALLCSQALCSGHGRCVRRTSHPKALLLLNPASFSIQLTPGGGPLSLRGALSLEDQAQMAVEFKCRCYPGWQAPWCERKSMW

Hyal1 [2] = molecular target: T1, Hyal1; assay: Stains-all HA degradation assay with surface-displayed Hyal1 on E. coli cells, pH […] (incomplete curve; assay impaired beyond […]); type: cell-based

Row | Compound | IC50 (Hyal1 [1]) | IC50 (Hyal1 [2])
1 | CCC(=O)O[C@H]1CC[C@H]2[C@@H]3CCC4=CC(=O)CC[C@]4(C)[C@H]3CC[C@]12C [testosterone propionate] | 124 ± 1.1 µM | –
2 | O=C(/C=C/c1ccc(O)c(O)c1)O[C@@H](C(=O)O)[C@@H](OC(=O)/C=C/c1ccc(O)c(O)c1)C(=O)O [chicoric acid] | – | 171 µM
